Experiment in all cases: NCI-60 cell line screen, 48 h
For test [1], the system named is MDA-MB-435.
The subject of test [2] is DU-145 prostate.
The subject of test [3] is SNB-75 CNS.
For test [4], the system named is A549 NSCLC.
The subject of test [5] is SNB-19 CNS.
In test [6] the test system is COLO 205 colon.
Test [7] concerns HCC-2998 colon.
Test [8] concerns CAKI-1 renal.
The subject of test [9] is SW-620 colon.
Test [10] has as its system UACC-62 melanoma.

SMILES strings stand for the structures.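 Interpolation was linear, between the two tested concentrations surrounding the appropriate level; five concentrations were tested over 48 hours in 96-well plates. Here, GI50 denotes the concentration required for 50% inhibition of growth. TGI: concentration producing complete growth inhibition.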

With `N#Cc1nc2c(S(=O)(=O)c3ccccc3)c(N)n(Cc3cccnc3)c2nc1C#N`, the GI50 in [1] was more than 100 µM; in test [2], 24.7 µM; in test [3], 3.35 µM; in test [4], more than 100 µM; in test [5], 21.9 µM; in test [6] it was more than 100 µM. In addition, the GI50 in test [7] was more than 100 µM; in [8], 7.47 µM; in test [9] it was more than 100 µM; in test [10], 20.7 µM. Moreover, the TGI in test [1] was more than 100 µM; in test [2], more than 100 µM; in [3] it was 20.2 µM; in [4], more than 100 µM; in [5] it was 72.4 µM; in test [6], more than 100 µM. The TGI in [7], in [8], in test [9] and in [10] was more than 100 µM in each case.
For the compound `CC1(C)N=C(N)N=C(N)N1c1ccc(OCCCCOc2ccc(S(=O)(=O)F)cc2)c(Cl)c1`, the GI50 was 0.0604 µM in [1]; 0.194 µM in [2]; 0.737 µM in test [3]; 0.0826 µM in [4]; 0.259 µM in test [5]; 0.137 µM in [6]. Also, the GI50 was 0.485 µM in test [7], 3.7 µM in test [8], 0.0379 µM in test [9] and 0.0534 µM in test [10]. The TGI in [1] stood at 16.3 µM; in test [2] it was 16 µM; in [3] it was 17.1 µM; in [4], 14.8 µM; in test [5] it was 17.8 µM; in test [6], 15.5 µM. Besides, the TGI is 18.2 µM in test [7], more than 47.2 µM in test [8], 14 µM in test [9] and 18 µM in test [10].
Take `O=C(/C=C/c1cccnc1)NCCCCC1CCCN(C(=O)c2ccccc2)C1` (stereo not drawn): the GI50 in [1] is less than 0.01 µM; in test [2] it was less than 0.01 µM; in test [4] it was 0.0752 µM; in test [6] it was 0.75 µM; in test [7], 0.974 µM; in test [8], 9 µM. Moreover, the GI50 is less than 0.01 µM in [9] and more than 90.6 µM in test [10]. In addition, the TGI in [1], in test [2], in test [3], in test [4], in [5] and in test [6] was more than 100 µM each time. The TGI in test [7], in test [8], in test [9] and in [10] was more than 100 µM in each case.
On to `COc1ccccc1CCN=C1NC(=O)/C(=C/c2ccc3ncccc3c2)S1`, for which the GI50 is 1.43 µM in test [1]; 7.97 µM in test [2]; 3.71 µM in test [3]; 5.93 µM in [4]; 4.93 µM in test [5]; 2.86 µM in test [6]. Moreover, the GI50 is 8.7 µM in test [7], 3.52 µM in test [8], 1.32 µM in [9] and 6.1 µM in [10]. Further, the TGI in test [1] was more than 25 µM; in test [2], more than 25 µM; in test [3] it was more than 19.2 µM; in test [4] it was more than 25 µM; in test [5], more than 25 µM; in test [6], more than 19.6 µM. In addition, the TGI in [7] was more than 25 µM; in [8] it was more than 15.6 µM; in test [9] it was more than 25 µM; in test [10] it was more than 25 µM.
As to `COc1cc(C)c(Cl)cc1C1=NN(c2ccc(S(N)(=O)=O)cc2)C(/C=C/c2ccccc2)C1` (stereo not drawn), the GI50 is 2.65 µM in test [1]; 3.91 µM in [2]; 3 µM in [3]; 3.31 µM in test [4]; 8.08 µM in test [5]; 1.76 µM in test [6]. Also, the GI50 in [7] is 2.57 µM; in [8] it was 2.7 µM; in test [9], 4.09 µM; in [10], 3.77 µM. Further, the TGI in test [1] is 8.4 µM; in test [2] it was 16.7 µM; in [3] it was 30.1 µM; in [4] it was 19.3 µM; in test [5] it was more than 100 µM; in test [6] it was 3.33 µM. For the same compound, the TGI turned out to be 8.49 µM in [7], 19.1 µM in test [8], 20.7 µM in test [9] and 19.4 µM in test [10].
As for `Cc1ccccc1N=Nc1ccc(NC(=O)c2ccnn2C)c(C)c1`, the GI50 is 54.9 µM in [1]; more than 100 µM in [2]; 3.66 µM in [3]; 73.9 µM in test [4]; 24.4 µM in test [5]; more than 100 µM in test [6]. Also, the GI50 was more than 100 µM in [7], 55.4 µM in [8], more than 100 µM in test [9] and 97.2 µM in test [10]. Besides, the TGI in test [1] was more than 100 µM; in test [2] it was more than 100 µM; in test [3], 33.5 µM; in test [4], more than 100 µM; in test [5], more than 100 µM; in test [6] it was more than 100 µM. Further, the TGI in [7], in test [8], in test [9] and in test [10] was more than 100 µM each time.
`O=C(CN1CCN(CCCOc2c(-c3ccccc3)oc3ccccc3c2=O)CC1)Nc1ccc(Cl)cc1C(=O)c1ccccc1Cl`: the GI50 is 4.13 µM in test [1]; 19.8 µM in test [2]; 4.39 µM in test [3]; 6.37 µM in test [4]; 8.09 µM in test [5]; 13.4 µM in test [6]. Besides, the GI50 in test [7] was 2.26 µM; in test [8], 12.9 µM; in test [9] it was 0.336 µM; in test [10] it was 12.3 µM. Further, the TGI is 17 µM in test [1]; more than 100 µM in test [2]; 47.1 µM in [3]; more than 100 µM in test [4]; more than 100 µM in [5]; 30.2 µM in [6]. Further, the TGI was 4.23 µM in test [7], 36.9 µM in test [8], more than 100 µM in test [9] and 26.3 µM in [10].
